The text below walks through data of paper PMC8233319, “Protein mimetic amyloid inhibitor potently abrogates cancer-associated mutant p53 aggregation and restores tumor suppressor function” (Nature Communications, 2021).

In data set [1] the target is T1, p53 (mutant R248W DBD-derived peptide pR248W) (Homo sapiens, UniProt P04637, R248W).
T1 construct: gene TP53
In words: intrinsic tryptophan fluorescence quenching titration (weak; no CETSA stabilization of R248W). The data set is classed as binding.

The target in data set [2] is T1, p53 (mutant R248W DBD-derived peptide pR248W). In words: intrinsic tryptophan fluorescence quenching titration (also HSQC NMR on R248W DBD and CETSA in MIA PaCa-2 cells). It counts as binding.
The target of the next data set is T2, p53 (mutant R175H) (Homo sapiens, UniProt P04637, R175H).
T2 construct: gene TP53; endogenous mutant p53 in SK-BR-3 cells
In words: CETSA in SK-BR-3 cells (Tm […] to […] °C at […]). The data set is classed as cell-based.

Data set [3] concerns the molecule itself. The data set is described as follows: thioflavin T (ThT) amyloid aggregation kinetics; 25 uM peptide alone in PBS with 50 uM ThT, shaking, 37 °C, fluorescence every 5 min; self-assembly into amyloid.

One may read the Kd as the equilibrium constant for the complex coming apart. With `COC(=O)c1ccc(NC(=O)c2ccc(NC(=O)c3ccc([N+](=O)[O-])c(OCC(=O)O)n3)c(OCc3ccccc3)n2)c(OCC(=O)O)n1` [ADH-1], the Kd in data set [1] was found to be 15.4 ± 0.8 µM.

On to `CCCCOc1nc(C(=O)Nc2ccc(C(=O)Nc3ccc(C(=O)OC)nc3OCCCN)nc2OCCCN)ccc1[N+](=O)[O-]` [ADH-6], for which binding in data set [2] was characterised by a dissociation constant (Kd) of 0.366 ± 0.013 µM. In addition, the “CETSA in SK-BR-3 cells (Tm 38.8 to 45.1 °C at 5 μM)” value at p53 (mutant R175H) is 45.1 ± 1.2 °C.

B1: pWT, WT p53 DBD-derived peptide (residues 248-273) (peptide, UniProt P04637 248-273, looked up)
peptide: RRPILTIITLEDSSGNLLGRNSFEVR
notes: source: synthetic peptide (Selleck Chemicals, Fmoc; purified in house by reverse-phase HPLC)
On to B1, for which, in data set [3], the binding result was “binds”.
